# From ChEMBL document CHEMBL6153088, “Discovery of 1,4-Disubstituted Cyclohexene Analogues as Selective GPR119 Agonists for the Treatment of Type 2 Diabetes” (J Med Chem, 2025)
# The source made the active and inactive calls. The rule behind the calls is not given here.
# Assays:
# Mus musculus [1] = assay: Anti-diabetic activity in overnight fasted male C57BL/6J mouse assessed as reduction in blood glucose level by measuring reduction in AUC […] at 20 mg/kg pre-administered with compound for 30 min followed by glucose bolus addition and measured upto 120 min by oral glucose tolerance test relative to control; type: functional; design: scale not given: the % may be the effect or the level left; settings: time <= 150 min, 2.5 h
# [2] = target: T1, Glucose-dependent insulinotropic receptor (Homo sapiens, UniProt Q8TDV5); assay: Agonist activity at human GPR119 expressed in CHO cells assessed as cAMP level measured after 90 mins by HTRF based assay; type: functional, cell-based
# T1 sequence (Q8TDV5 whole entry): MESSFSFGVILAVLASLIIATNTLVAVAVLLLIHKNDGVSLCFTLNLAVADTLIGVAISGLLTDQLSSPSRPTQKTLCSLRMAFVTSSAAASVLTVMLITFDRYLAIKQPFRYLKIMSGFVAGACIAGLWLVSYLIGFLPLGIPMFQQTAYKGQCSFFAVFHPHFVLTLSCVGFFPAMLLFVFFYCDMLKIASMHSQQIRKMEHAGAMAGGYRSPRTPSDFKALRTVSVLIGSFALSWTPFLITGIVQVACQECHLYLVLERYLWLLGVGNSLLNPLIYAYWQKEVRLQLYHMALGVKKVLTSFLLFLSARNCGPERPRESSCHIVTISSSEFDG
# [3] = target: T1, Glucose-dependent insulinotropic receptor; assay: Agonist activity at human GPR119 expressed in CHO-K1 cells co-transfected with pcDNA3.1 assessed as increase in cAMP level; type: functional, cell-based
# Mus musculus [4] = assay: Anti-diabetic activity in male FATZO mouse assessed as reduction in blood glucose level by measuring AUC […] at 300 mg/kg once a day pre-administered with compound for 30 min followed by glucose bolus addition and measured upto 120 min by oral glucose tolerance test relative to control; type: functional; design: scale not given: the % may be the effect or the level left; settings: time <= 150 min, 2.5 h
# [5] = Induction of GLP-1 secretion in human NCI-H716 cells assessed as fold change at 10 uM measured after 1 hr by ELISA method; type: functional
# Rattus norvegicus [6] = assay: Antidiabetic activity in high-fat diet induced obese female Sprague-Dawley rat model assessed as hypoglycemic effect at 3 to 30 mg/kg administered once daily for 5 weeks by oral glucose tolerance test; type: functional, organism-based; settings: dose 3-30 mg/kg
# [7] = Half-life in Sprague-Dawley rat at 30 mg/kg, po measured upto 48 hrs by LC-MS/MS analysis; type: ADME, organism-based; settings: in vivo
# [8] = Oral bioavailability in Cynomolgus monkey at 30 mg/kg measured upto 48 hrs by LC-MS/MS analysis; type: ADME, organism-based, Macaca fascicularis; settings: in vivo
# [9] = Dissociation constant, pKa of compound; type: physicochemical
# [10] = Half-life in Beagle dog at 10 mg/kg, po measured upto 48 hrs by LC-MS/MS analysis; type: ADME, organism-based, Canis lupus familiaris; settings: in vivo
# Rattus norvegicus [11] = assay: Antidiabetic activity high-fat diet induced female Sprague-Dawley rat model assessed as reduction in body weight at 3 to 30 mg/kg measured after 28 days by oral glucose tolerance test; type: functional, organism-based; settings: dose 3-30 mg/kg, time 28.0 day
# Cytochrome P450 3A4 = Cytochrome P450 3A4 (Homo sapiens, UniProt P08684); assay: Inhibition of CYP3A4 in human liver microsomes using midazolam as substrate incubated for 5 min in presence of NADPH by LC-MS/MS analysis; type: ADME, Microsome
# Sequence of Cytochrome P450 3A4 (P08684 whole entry): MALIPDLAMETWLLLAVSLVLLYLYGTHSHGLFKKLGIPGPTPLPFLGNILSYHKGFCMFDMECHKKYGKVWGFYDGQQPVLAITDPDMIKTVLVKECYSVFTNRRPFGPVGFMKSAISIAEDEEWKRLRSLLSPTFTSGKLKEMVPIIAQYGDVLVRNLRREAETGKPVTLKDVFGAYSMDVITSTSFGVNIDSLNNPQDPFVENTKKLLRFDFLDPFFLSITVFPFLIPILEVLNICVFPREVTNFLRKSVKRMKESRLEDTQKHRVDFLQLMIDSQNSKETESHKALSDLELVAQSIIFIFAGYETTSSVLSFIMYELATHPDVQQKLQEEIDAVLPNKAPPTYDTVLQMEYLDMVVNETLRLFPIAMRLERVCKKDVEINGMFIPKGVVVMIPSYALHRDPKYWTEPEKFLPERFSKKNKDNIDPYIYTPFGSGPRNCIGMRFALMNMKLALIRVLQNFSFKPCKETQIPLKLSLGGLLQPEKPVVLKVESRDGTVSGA
# Cytochrome P450 2C19 = Cytochrome P450 2C19 (Homo sapiens, UniProt P33261); assay: Inhibition of CYP2C19 in human liver microsomes using mephenytoin as substrate incubated for 45 min in presence of NADPH by LC-MS/MS analysis; type: ADME, Microsome
# Sequence of Cytochrome P450 2C19 (P33261 whole entry): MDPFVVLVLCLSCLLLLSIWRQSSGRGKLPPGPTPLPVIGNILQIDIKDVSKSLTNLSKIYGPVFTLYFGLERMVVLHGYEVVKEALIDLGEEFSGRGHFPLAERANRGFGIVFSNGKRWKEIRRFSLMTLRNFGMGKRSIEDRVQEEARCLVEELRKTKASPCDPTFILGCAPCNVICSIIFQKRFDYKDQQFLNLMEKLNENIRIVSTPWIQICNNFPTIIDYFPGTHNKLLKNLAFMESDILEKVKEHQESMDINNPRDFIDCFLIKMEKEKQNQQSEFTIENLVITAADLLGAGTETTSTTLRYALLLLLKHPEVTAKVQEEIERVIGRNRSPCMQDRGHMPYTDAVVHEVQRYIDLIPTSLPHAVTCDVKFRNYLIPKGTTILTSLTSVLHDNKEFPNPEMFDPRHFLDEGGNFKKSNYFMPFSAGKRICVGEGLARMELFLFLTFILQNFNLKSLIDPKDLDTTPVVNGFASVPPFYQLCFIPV
# [12] = Lipophilicity, logP of compound; type: physicochemical; settings: octanol/water
# [13] = Induction of GLP-1 secretion in human NCI-H716 cells assessed as fold change at 30 uM measured after 1 hr by ELISA method; type: functional
# Cytochrome P450 2C9 = Cytochrome P450 2C9 (Homo sapiens, UniProt P11712); assay: Inhibition of CYP2C9 in human liver microsomes using diclofenac as substrate incubated for 10 min in presence of NADPH by LC-MS/MS analysis; type: ADME, Microsome
# Sequence of Cytochrome P450 2C9 (P11712 whole entry): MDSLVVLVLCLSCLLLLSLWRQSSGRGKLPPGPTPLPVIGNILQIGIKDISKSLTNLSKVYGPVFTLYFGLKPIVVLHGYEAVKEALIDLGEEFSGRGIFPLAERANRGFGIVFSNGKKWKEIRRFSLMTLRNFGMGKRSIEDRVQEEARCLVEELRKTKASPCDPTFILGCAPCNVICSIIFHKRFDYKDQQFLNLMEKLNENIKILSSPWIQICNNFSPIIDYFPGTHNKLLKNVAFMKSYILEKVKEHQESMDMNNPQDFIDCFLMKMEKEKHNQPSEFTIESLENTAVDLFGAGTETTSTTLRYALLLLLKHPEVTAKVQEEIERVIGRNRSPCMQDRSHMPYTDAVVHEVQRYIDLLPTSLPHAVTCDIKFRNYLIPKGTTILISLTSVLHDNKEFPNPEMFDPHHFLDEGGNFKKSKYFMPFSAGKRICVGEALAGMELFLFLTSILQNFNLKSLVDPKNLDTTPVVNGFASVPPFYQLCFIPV
# Mus musculus [14] = assay: Anti-diabetic activity in male db/db mouse assessed as reduction in blood glucose level administered twice a day preincubated with compound for 30 min followed by glucose bolus addition and measured upto 120 min by oral glucose tolerance test; type: functional, organism-based; settings: dose 30-30 mg/kg, time <= 150.0 min
# [15] = target: Voltage-gated inwardly rectifying potassium channel KCNH2 (Homo sapiens, UniProt Q12809); assay: Inhibition of human ERG incubated for 150 min by fluorescence polarization based microplate reader analysis; type: toxicity
# Sequence of Voltage-gated inwardly rectifying potassium channel KCNH2 (Q12809 whole entry): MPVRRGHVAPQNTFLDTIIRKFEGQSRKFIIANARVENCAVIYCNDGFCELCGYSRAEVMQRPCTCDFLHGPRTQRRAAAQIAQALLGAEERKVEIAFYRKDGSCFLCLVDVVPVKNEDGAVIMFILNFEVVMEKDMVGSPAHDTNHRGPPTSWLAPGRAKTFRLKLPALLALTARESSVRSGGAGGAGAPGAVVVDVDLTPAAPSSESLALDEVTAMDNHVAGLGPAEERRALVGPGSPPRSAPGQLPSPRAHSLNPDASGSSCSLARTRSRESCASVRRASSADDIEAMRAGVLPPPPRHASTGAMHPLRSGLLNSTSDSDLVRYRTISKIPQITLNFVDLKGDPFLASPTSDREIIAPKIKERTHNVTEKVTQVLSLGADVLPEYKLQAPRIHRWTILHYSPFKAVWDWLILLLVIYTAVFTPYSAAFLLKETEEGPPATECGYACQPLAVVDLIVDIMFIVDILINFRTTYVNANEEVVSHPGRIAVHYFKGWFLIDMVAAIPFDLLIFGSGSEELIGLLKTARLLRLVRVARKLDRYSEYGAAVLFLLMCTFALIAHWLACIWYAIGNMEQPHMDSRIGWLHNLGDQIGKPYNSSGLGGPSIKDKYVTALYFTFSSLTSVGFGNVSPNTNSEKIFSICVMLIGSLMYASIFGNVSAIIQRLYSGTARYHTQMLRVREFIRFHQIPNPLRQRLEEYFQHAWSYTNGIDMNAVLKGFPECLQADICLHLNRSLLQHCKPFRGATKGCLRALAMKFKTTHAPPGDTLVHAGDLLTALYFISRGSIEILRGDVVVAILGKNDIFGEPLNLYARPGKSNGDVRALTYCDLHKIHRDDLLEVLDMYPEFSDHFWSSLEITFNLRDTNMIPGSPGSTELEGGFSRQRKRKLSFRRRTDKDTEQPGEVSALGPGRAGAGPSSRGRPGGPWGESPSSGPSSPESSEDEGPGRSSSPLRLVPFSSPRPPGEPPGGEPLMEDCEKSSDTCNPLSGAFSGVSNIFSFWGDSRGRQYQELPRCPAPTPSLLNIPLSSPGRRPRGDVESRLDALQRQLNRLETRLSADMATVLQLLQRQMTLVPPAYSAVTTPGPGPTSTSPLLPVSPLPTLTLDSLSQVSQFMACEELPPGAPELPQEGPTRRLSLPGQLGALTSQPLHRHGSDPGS
# Mus musculus [16] = assay: Anti-diabetic activity in male FATZO mouse assessed as reduction in blood glucose level by measuring reduction in AUC […] at 30 mg/kg pre-administered with compound for 30 min followed by glucose bolus addition and measured upto 120 min by oral glucose tolerance test relative to control; type: functional; design: scale not given: the % may be the effect or the level left; settings: time <= 150 min, 2.5 h
# [17] = Half-life in Cynomolgus monkey at 30 mg/kg, po measured upto 48 hrs by LC-MS/MS analysis; type: ADME, organism-based, Macaca fascicularis; settings: in vivo
# Rattus norvegicus [18] = assay: Antidiabetic activity high-fat diet induced obese female Sprague-Dawley rat model assessed as reduction in fasting glucose levels at 3 to 30 mg/kg measured after 37 days by oral glucose tolerance test; type: functional, organism-based; settings: dose 3-30 mg/kg, time 37.0 day
# [19] = Oral bioavailability in Sprague-Dawley rat at 30 mg/kg measured upto 48 hrs by LC-MS/MS analysis; type: ADME, organism-based; settings: in vivo
# [20] = Microsomal stability in human liver microsome assessed as compound remaining measured upto 45 min in presence of NADPH by LC-MS analysis; type: ADME; settings: liver microsomes, read-out: Stability
# Cytochrome P450 2D6 = Cytochrome P450 2D6 (Homo sapiens, UniProt P10635); assay: Inhibition of CYP2D6 in human liver microsomes using dextromethorphan as substrate incubated for 20 min in presence of NADPH by LC-MS/MS analysis; type: ADME, Microsome
# Sequence of Cytochrome P450 2D6 (P10635 whole entry): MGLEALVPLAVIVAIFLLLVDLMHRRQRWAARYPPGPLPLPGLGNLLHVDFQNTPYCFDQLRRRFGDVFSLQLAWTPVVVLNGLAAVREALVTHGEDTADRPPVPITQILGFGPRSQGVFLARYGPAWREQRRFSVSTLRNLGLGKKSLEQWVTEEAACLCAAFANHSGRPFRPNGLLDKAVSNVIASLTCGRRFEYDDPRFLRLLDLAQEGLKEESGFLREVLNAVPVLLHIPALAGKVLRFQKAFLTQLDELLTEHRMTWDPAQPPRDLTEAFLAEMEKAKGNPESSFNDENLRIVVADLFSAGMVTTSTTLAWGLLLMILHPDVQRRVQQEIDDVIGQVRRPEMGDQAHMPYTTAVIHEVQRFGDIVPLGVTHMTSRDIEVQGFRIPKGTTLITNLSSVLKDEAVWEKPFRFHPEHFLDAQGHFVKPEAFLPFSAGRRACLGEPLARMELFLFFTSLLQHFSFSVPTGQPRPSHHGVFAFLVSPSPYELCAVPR
# Cytochrome P450 1A2 = target: T2, Cytochrome P450 1A2 (Homo sapiens, UniProt P05177); assay: Inhibition of CYP1A2 in human liver microsomes using phenacetin as substrate incubated for 10 min in presence of NADPH by LC-MS/MS analysis; type: ADME, Microsome
# T2 sequence (P05177 whole entry): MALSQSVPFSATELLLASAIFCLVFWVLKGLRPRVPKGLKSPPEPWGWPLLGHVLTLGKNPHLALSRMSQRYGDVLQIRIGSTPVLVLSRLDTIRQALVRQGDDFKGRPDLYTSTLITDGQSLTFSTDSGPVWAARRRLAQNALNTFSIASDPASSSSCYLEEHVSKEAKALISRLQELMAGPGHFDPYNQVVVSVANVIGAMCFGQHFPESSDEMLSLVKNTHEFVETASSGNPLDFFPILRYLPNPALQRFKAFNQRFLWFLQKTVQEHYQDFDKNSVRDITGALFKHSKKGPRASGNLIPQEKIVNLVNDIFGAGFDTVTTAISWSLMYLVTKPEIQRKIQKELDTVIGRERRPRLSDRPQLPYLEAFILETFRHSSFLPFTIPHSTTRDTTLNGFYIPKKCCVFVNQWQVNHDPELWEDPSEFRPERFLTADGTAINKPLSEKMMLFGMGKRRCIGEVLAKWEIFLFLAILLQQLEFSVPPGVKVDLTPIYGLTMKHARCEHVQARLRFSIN
# [21] = Kinetic solubility of the compound in water; type: physicochemical; settings: read-out: Kinetic_solubility
# [22] = Microsomal stability in rat liver microsome assessed as compound remaining measured upto 45 min in presence of NADPH by LC-MS analysis; type: ADME; settings: liver microsomes, read-out: Stability
# [23] = Microsomal stability in dog liver microsome assessed as compound remaining measured upto 45 min in presence of NADPH by LC-MS analysis; type: ADME, Canis lupus familiaris; settings: liver microsomes, read-out: Stability
# INS1 = assay: Induction of insulin secretion in glucose treated INS1 cells at 0.1 to 1 uM measured after 1 hr by ELISA method; type: functional, cell-based; settings: Rattus norvegicus, dose 0.1-1 µM
smiles,measurement,setting,value
CCc1cnc(N2CCC(COc3ccc(C4=CCC(C(=O)N5CCC[C@H]5CO)CC4)cc3)CC2)nc1 (stereo partly specified),Activity,Mus musculus [1],9.8%
same,EC50,[2],31 nM
CC[C@@H](Oc1ccc(C(=O)C2CC2)cc1)c1nc(-c2ccc(C(=O)N[C@H](C)CO)c(F)c2)no1 [FIRUGLIPEL],EC50,[3],51 nM
CCc1cnc(N2CCC(COc3ccc(C4=CC[C@@H](C(=O)N5CCC[C@@H]5CO)CC4)cc3)CC2)nc1,EC50,[2],32 nM
CCc1cnc(N2CCC(COc3ccc(C4=CCC(C(=O)N5CCOCC5)CC4)cc3)CC2)nc1 (stereo unspecified),Activity,Mus musculus [1],15.7%
same,EC50,[2],13 nM
CCc1cnc(N2CCC(COc3ccc(C4=CCC(C(=O)N5CC[C@H](CO)C5)CC4)cc3)CC2)nc1 (stereo partly specified),Activity,Mus musculus [1],13%
same,EC50,[2],36 nM
CC(C)c1noc(N2CCC(COc3ccc(C4=CCC(C(=O)N5CCC5)CC4)cc3)CC2)n1 (stereo unspecified),Activity,Mus musculus [1],4.2%
same,EC50,[2],41 nM
CN(C)C(=N)NC(=N)N [METFORMIN],Activity,Mus musculus [4],25%
CCc1cnc(N2CCC(COc3ccc(C4=CCC(C(=O)N5CCC5)CC4)cc3)CC2)nc1 (stereo unspecified),Activity,Mus musculus [1],14.6%
same,EC50,[2],38 nM
CC(C)c1noc(N2CCC(COc3ccc(C4=CCC(C(=O)N5CCCC5)CC4)cc3)CC2)n1 (stereo unspecified),Activity,Mus musculus [1],5.9%
same,EC50,[2],55 nM
CCc1cnc(N2CCC(COc3ccc(C4=CCC(C(=O)N5CC(O)C5)CC4)cc3)CC2)nc1 (stereo unspecified),Activity,Mus musculus [1],12.3%
same,EC50,[2],70 nM
CCc1cnc(N2CCC(COc3ccc(C4=CCC(C(=O)N5CCC(F)(F)C5)CC4)cc3)CC2)nc1 (stereo unspecified),Activity,Mus musculus [1],12.6%
same,EC50,[2],10 nM
CCc1cnc(N2CCC(COc3ccc(C4=CC[C@H](C(=O)N5CCC[C@@H]5CO)CC4)cc3)CC2)nc1,fold change (FC),[5],1.7
same,Activity,Rattus norvegicus [6],Active; Strong Glucose Tolerant Ability
same,half-life,[7],324 min
same,bioavailability,[8],31.6%
same,pKa,[9],2.49
same,half-life,[10],1030 min
same,Activity,Rattus norvegicus [11],Active; Significant Reduction In Body Weight
same,IC50,Cytochrome P450 3A4,> 10 µM
same,IC50,Cytochrome P450 2C19,> 10 µM
same,logP,[12],3.45
same,fold change (FC),[13],1.8
same,IC50,Cytochrome P450 2C9,> 10 µM
same,Activity,Mus musculus [14],Dose-dependent-effect; Superior Compared To Sitagliptin
same,EC50,[2],3.8 nM
same,IC50,[15],> 100 µM
same,Activity,Mus musculus [16],22.9%
same,half-life,[17],702 min
same,Activity,Rattus norvegicus [18],Active
same,bioavailability,[19],28.3%
same,remaining at 0.75 h,[20],53.8%
same,IC50,Cytochrome P450 2D6,> 10 µM
same,IC50,Cytochrome P450 1A2,> 10 µM
same,solubility kinetic,[21],176 µM
same,remaining at 0.75 h,[22],48.3%
same,remaining at 0.75 h,[23],62.4%
same,Activity,INS1,Active
CC(C)(C)OC(=O)N1CCC(COc2ccc(C3=CCC(C(=O)N4CCOCC4)CC3)cc2)CC1 (stereo unspecified),Activity,Mus musculus [1],10.2%
same,EC50,[2],13 nM
CCc1cnc(N2CCC(COc3ccc(C4=CCC(C(=O)N5CC[C@@H](CO)C5)CC4)cc3)CC2)nc1 (stereo partly specified),Activity,Mus musculus [1],7.6%
same,EC50,[2],43 nM
CC(C)c1noc(N2CCC(COc3ccc(C4=CCC(C(=O)N5CCOCC5)CC4)cc3)CC2)n1 (stereo unspecified),Activity,Mus musculus [1],4.1%
same,EC50,[2],18 nM
